Results as given in the CheMixHub viscosity set.
± gives the uncertainty stated by the source.

Test: xn = mol fraction of the nth substance listed

COC(C)(C)C + CCCCCO
Details | viscosity [mPa·s]
298.15 K, 101.33 kPa, x1 = 0.0301 | 3.179 ± 0.19
298.15 K, 101.33 kPa, x1 = 0.0484 | 3.008 ± 0.18
298.15 K, 101.33 kPa, x1 = 0.1133 | 2.461 ± 0.15
298.15 K, 101.33 kPa, x1 = 0.1663 | 2.091 ± 0.13
298.15 K, 101.33 kPa, x1 = 0.2824 | 1.56 ± 0.096
298.15 K, 101.33 kPa, x1 = 0.3286 | 1.346 ± 0.084
298.15 K, 101.33 kPa, x1 = 0.3767 | 1.174 ± 0.074
298.15 K, 101.33 kPa, x1 = 0.4229 | 1.052 ± 0.067
298.15 K, 101.33 kPa, x1 = 0.4688 | 0.939 ± 0.061
298.15 K, 101.33 kPa, x1 = 0.5137 | 0.843 ± 0.055
298.15 K, 101.33 kPa, x1 = 0.5239 | 0.843 ± 0.055
298.15 K, 101.33 kPa, x1 = 0.5817 | 0.725 ± 0.049
298.15 K, 101.33 kPa, x1 = 0.6305 | 0.653 ± 0.045
298.15 K, 101.33 kPa, x1 = 0.6824 | 0.587 ± 0.041
298.15 K, 101.33 kPa, x1 = 0.7282 | 0.538 ± 0.038
298.15 K, 101.33 kPa, x1 = 0.7788 | 0.487 ± 0.035
298.15 K, 101.33 kPa, x1 = 0.8339 | 0.44 ± 0.033
298.15 K, 101.33 kPa, x1 = 0.8897 | 0.398 ± 0.03
298.15 K, 101.33 kPa, x2 = 0.0178 | 0.349 ± 0.028
303.15 K, 101 kPa, x1 = 0.0401 | 2.675 ± 0.11

COC(C)(C)C + CCCO
Details | viscosity [mPa·s]
293.15 K, 101 kPa, x1 = 0.0599 | 1.835 ± 0.075
298.15 K, 101 kPa, x1 = 0.0403 | 1.735 ± 0.071
298.15 K, 101 kPa, x1 = 0.1495 | 1.275 ± 0.052
298.15 K, 101.33 kPa, x1 = 0.0111 | 1.902 ± 0.029
298.15 K, 101.33 kPa, x1 = 0.0293 | 1.804 ± 0.028
298.15 K, 101.33 kPa, x1 = 0.0591 | 1.651 ± 0.026
298.15 K, 101.33 kPa, x1 = 0.1133 | 1.416 ± 0.022
298.15 K, 101.33 kPa, x1 = 0.1374 | 1.327 ± 0.021
298.15 K, 101.33 kPa, x1 = 0.2501 | 0.998 ± 0.016
298.15 K, 101.33 kPa, x1 = 0.3008 | 0.889 ± 0.015
298.15 K, 101.33 kPa, x1 = 0.324 | 0.85 ± 0.014
298.15 K, 101.33 kPa, x1 = 0.3581 | 0.792 ± 0.013
298.15 K, 101.33 kPa, x1 = 0.3641 | 0.779 ± 0.013
298.15 K, 101.33 kPa, x1 = 0.4004 | 0.729 ± 0.012
298.15 K, 101.33 kPa, x1 = 0.4451 | 0.671 ± 0.012
298.15 K, 101.33 kPa, x1 = 0.488 | 0.624 ± 0.011
298.15 K, 101.33 kPa, x1 = 0.5535 | 0.562 ± 0.01
298.15 K, 101.33 kPa, x1 = 0.6157 | 0.512 ± 0.007
298.15 K, 101.33 kPa, x1 = 0.677 | 0.471 ± 0.007
298.15 K, 101.33 kPa, x1 = 0.7585 | 0.427 ± 0.007
298.15 K, 101.33 kPa, x1 = 0.8246 | 0.397 ± 0.006
298.15 K, 101.33 kPa, x1 = 0.8813 | 0.378 ± 0.006
298.15 K, 101.33 kPa, x1 = 0.9491 | 0.356 ± 0.006
298.15 K, 101.33 kPa, x2 = 0.014 | 0.344 ± 0.006

C=CC(=O)OCC + CCCCCCCO
viscosity [mPa·s], 101.3 kPa
Details | x1 = 0.0736 | x1 = 0.1906 | x1 = 0.2456 | x1 = 0.3599 | x1 = 0.4687 | x1 = 0.6637 | x1 = 0.7551 | x1 = 0.8399 | x1 = 0.9223 | x1 = 0.9662
298.15 K | 4.585 ± 0.2 | 3.017 ± 0.14 | 2.513 ± 0.11 | 1.864 ± 0.087 | 1.399 ± 0.067 | 0.923 ± 0.046 | 0.778 ± 0.04 | 0.655 ± 0.035 | 0.576 ± 0.031 | 0.534 ± 0.029
308.15 K | 3.306 ± 0.15 | 2.411 ± 0.11 | 2.01 ± 0.093 | 1.531 ± 0.072 | 1.18 ± 0.057 | 0.778 ± 0.04 | 0.658 ± 0.035 | 0.564 ± 0.031 | 0.505 ± 0.028 | 0.471 ± 0.027

COCCOCCOCCOCCOC + CCOC(C)=O
viscosity [mPa·s], 101 kPa
Details | 298.15 K | 308.15 K | 318.15 K
x1 = 0.0108 | 0.448 ± 0.012 | 0.399 ± 0.011 | 0.364 ± 0.01
x1 = 0.0195 | 0.462 ± 0.012 | 0.413 ± 0.011 | 0.375 ± 0.01
x1 = 0.0488 | 0.514 ± 0.014 | 0.456 ± 0.012 | 0.413 ± 0.011
x1 = 0.0905 | 0.594 ± 0.016 | 0.521 ± 0.014 | 0.465 ± 0.012
x1 = 0.1406 | 0.695 ± 0.018 | 0.607 ± 0.016 | 0.534 ± 0.014
x1 = 0.1786 | 0.779 ± 0.021 | 0.673 ± 0.018 | 0.591 ± 0.016
x1 = 0.2377 | 0.919 ± 0.024 | 0.784 ± 0.021 | 0.68 ± 0.018
x1 = 0.3377 | 1.176 ± 0.031 | 0.988 ± 0.026 | 0.847 ± 0.022
x1 = 0.4796 | 1.579 ± 0.042 | 1.315 ± 0.035 | 1.092 ± 0.029
x1 = 0.5793 | 1.896 ± 0.05 | 1.549 ± 0.041 | 1.282 ± 0.034
x1 = 0.6422 | 2.11 ± 0.056 | 1.699 ± 0.045 | 1.4 ± 0.037
x1 = 0.7422 | 2.453 ± 0.065 | 1.97 ± 0.052 | 1.549 ± 0.041
x1 = 0.8246 | 2.726 ± 0.072 | 2.169 ± 0.057 | 1.755 ± 0.047
x1 = 0.8574 | 2.878 ± 0.076 | 2.258 ± 0.06 | 1.826 ± 0.048
x1 = 0.9081 | 3.019 ± 0.08 | 2.398 ± 0.063 | 1.921 ± 0.051
x1 = 0.9454 | 3.159 ± 0.083 | 2.488 ± 0.066 | 1.998 ± 0.053
x1 = 0.9792 | 3.305 ± 0.087 | 2.581 ± 0.068 | 2.072 ± 0.055

CC1=CCC(=C(C)C)CC1 + Brc1ccccc1
viscosity [mPa·s], 101 kPa
Details | x1 = 0.0687 | x1 = 0.1424 | x1 = 0.2216 | x1 = 0.307 | x1 = 0.3992 | x1 = 0.4992 | x1 = 0.6079 | x1 = 0.7266 | x1 = 0.8567
303.15 K | 0.993 ± 0.021 | 1 ± 0.022 | 1.011 ± 0.024 | 1.023 ± 0.027 | 1.032 ± 0.03 | 1.036 ± 0.034 | 1.033 ± 0.038 | 1.023 ± 0.043 | 1.01 ± 0.048
308.15 K | 0.942 ± 0.02 | 0.948 ± 0.021 | 0.957 ± 0.023 | 0.967 ± 0.025 | 0.975 ± 0.029 | 0.979 ± 0.032 | 0.973 ± 0.036 | 0.962 ± 0.04 | 0.947 ± 0.045
313.15 K | 0.893 ± 0.019 | 0.897 ± 0.02 | 0.905 ± 0.022 | 0.913 ± 0.024 | 0.919 ± 0.027 | 0.922 ± 0.03 | 0.915 ± 0.034 | 0.903 ± 0.038 | 0.887 ± 0.042

Clc1ccccc1 + CCCCCO
293.15 K, 101.33 kPa
Details | viscosity [mPa·s]
x2 = 0.0511 | 0.816 ± 0.011
x2 = 0.1017 | 0.852 ± 0.011
x2 = 0.1449 | 0.892 ± 0.012
x2 = 0.198 | 0.936 ± 0.012
x2 = 0.2665 | 1.017 ± 0.013
x2 = 0.3688 | 1.195 ± 0.015
x2 = 0.4687 | 1.387 ± 0.017
x2 = 0.5602 | 1.637 ± 0.02
x2 = 0.5789 | 1.697 ± 0.02
x2 = 0.7339 | 2.339 ± 0.027
x2 = 0.8618 | 3.062 ± 0.035
x2 = 0.9524 | 3.666 ± 0.041

Clc1cccc2ccccc12 + CCCCCCO
viscosity [mPa·s], 101.33 kPa
Details | x1 = 0.1047 | x1 = 0.2004 | x1 = 0.3023 | x1 = 0.3992 | x1 = 0.5019 | x1 = 0.6012 | x1 = 0.6993 | x1 = 0.8002 | x1 = 0.9013
298.15 K | 3.951 ± 0.18 | 3.68 ± 0.17 | 3.366 ± 0.16 | 3.133 ± 0.15 | 2.903 ± 0.15 | 2.781 ± 0.15 | 2.706 ± 0.15 | 2.638 ± 0.16 | 2.647 ± 0.17
303.15 K | 3.335 ± 0.15 | 3.105 ± 0.14 | 2.858 ± 0.14 | 2.67 ± 0.13 | 2.506 ± 0.13 | 2.455 ± 0.13 | 2.44 ± 0.14 | 2.304 ± 0.14 | 2.337 ± 0.15
308.15 K | 2.608 ± 0.12 | 2.423 ± 0.11 | 2.248 ± 0.11 | 2.084 ± 0.11 | 1.971 ± 0.1 | 1.951 ± 0.11 | 1.942 ± 0.11 | 1.969 ± 0.12 | 2.066 ± 0.13
